# Read-outs that look alike come from different tables or passages of the source.
# Tests used:
# [1] = biological target: T1, CYP2D6 (Homo sapiens, UniProt P10635); assay: Metabolic stability in Human CYP2D6 Supersomes; type: in vitro ADME; settings: human, recombinant human CYP2D6 Supersomes
# T1 construct: purchased Corning Gentest
# Procedure: (§1) Evaluation of Metabolic Stability in Human CYP2D6 Supersomes™
# (§2) Materials: CYP2D6 Supersomes™ were obtained from Corning Gentest. β-nicotinamide adenine dinucleotide phosphate, reduced form (NADPH), magnesium chloride (MgCl2), and dimethyl sulfoxide (DMSO) were purchased from Sigma-Aldrich. D-Eliglustat compounds were supplied by Concert Pharmaceuticals.
# (§3) Determination of Metabolic Stability: 10 mM stock solutions of test compounds were prepared in DMSO. […] The CYP2D6 supersomes were diluted to 5 pmol/mL in 0.1 M potassium phosphate buffer, pH 7.4, containing 3 mM MgCl2. The diluted supersomes were added to wells of a 96-well deep-well polypropylene plate in triplicate. […] Reactions were initiated by addition of pre-warmed NADPH solution. The final reaction volume was 0.5 mL and contained 5 pmol/mL CYP2D6 supersomes, 0.25 μM test compound, and 2 mM NADPH in 0.1 M potassium phosphate buffer, pH 7.4, and 3 mM MgCl2. The reaction mixtures were incubated at 37° C. and 50 μL aliquots were removed at 0, 5, 10, 20, and 30 minutes and added to shallow-well 96-well plates which contained 50 μL of ice-cold ACN with internal standard to stop the reactions. The plates were stored at 4° C. for 20 minutes after which 100 μL of water was added to the wells of the plate before centrifugation to pellet precipitated proteins. Supernatants were transferred to another 96-well plate and analyzed for amounts of parent remaining by LC-MS/MS using an Applied Bio-systems mass spectrometer.
# (§4) Data analysis: The in vitro t1/2s for test compounds were calculated from the slopes of the linear regression of % parent remaining (ln) vs incubation time relationship.
# (§5) k=−[slope of linear regression of % parent remaining (ln) vs incubation time]
# (§6) Data analysis was performed using Microsoft Excel Software.
# [2] = biological target: T2, Human CYP2D6 Supersomes (Homo sapiens, UniProt P10635); assay: Metabolic stability in Human CYP2D6 Supersomes; type: in vitro ADME; settings: Table 4a; for t1/2 (minutes) Experiment 2 / t1/2 (minutes) Experiment 1: 5 pmol/mL CYP2D6 supersomes, 0.25 μM test compound, 2 mM NADPH, 37° C.; for t1/2 (minutes) Experiment 1: parent remaining by LC-MS/MS; for t1/2 (minutes) Ave ± SD: average of Experiments 1 and 2
# T2 construct: purchased Corning Gentest
# Procedure: as §1, §2, §3, §4, §5, §6
# T1 sequence (P10635 whole entry): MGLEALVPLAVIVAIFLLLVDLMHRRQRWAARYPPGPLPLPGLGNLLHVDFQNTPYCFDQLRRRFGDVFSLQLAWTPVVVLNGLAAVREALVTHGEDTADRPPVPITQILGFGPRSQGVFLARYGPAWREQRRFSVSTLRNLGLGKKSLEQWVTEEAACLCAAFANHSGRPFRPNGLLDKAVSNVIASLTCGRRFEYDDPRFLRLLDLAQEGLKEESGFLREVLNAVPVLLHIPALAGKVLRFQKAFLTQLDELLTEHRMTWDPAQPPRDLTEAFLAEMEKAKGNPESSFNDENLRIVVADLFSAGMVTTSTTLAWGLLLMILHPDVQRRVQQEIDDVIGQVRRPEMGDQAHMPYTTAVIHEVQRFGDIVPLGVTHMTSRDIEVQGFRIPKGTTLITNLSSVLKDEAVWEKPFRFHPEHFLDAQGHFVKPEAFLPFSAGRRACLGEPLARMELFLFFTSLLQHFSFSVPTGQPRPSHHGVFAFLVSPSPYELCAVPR
# T2 sequence (P10635 whole entry): as above
Molecule,"half-life at 0.25 μM ([1]; pH 7.4, Table 4a, 5 pmol/mL CYP2D6 supersomes, 0.25 μM test compound, 2 mM NADPH, 37° C., parent remaining by LC-MS/MS, read-out: t1/2 (minutes) Experiment 1) [min]","half-life at 0.25 μM ([1]; pH 7.4, Table 4a, 5 pmol/mL CYP2D6 supersomes, 0.25 μM test compound, 2 mM NADPH, 37° C., read-out: t1/2 (minutes) Experiment 2) [min]","half-life at 0.25 μM ([1]; pH 7.4, Table 4a, average of Experiments 1 and 2, read-out: t1/2 (minutes) Ave ± SD) [min]","half-life at 0.25 μM ([1]; pH 7.4, Table 4b, Human CYP2D6 Supersomes, read-out: t1/2 (minutes) Experiment 1) [min]","half-life at 0.25 μM ([1]; pH 7.4, Table 4b, Human CYP2D6 Supersomes, read-out: t1/2 (minutes) Experiment 2) [min]","half-life at 0.25 μM ([1]; pH 7.4, Table 4b, average of Experiments 1 and 2, read-out: t1/2 (minutes) Ave ± SD) [min]",t1/2 (minutes) Experiment 2 [2] [min],t1/2 (minutes) Experiment 1 [2] [min],t1/2 (minutes) Ave ± SD [2] [min],% Δ of t1/2 = [(deuterated species) − (nondeuterated species)](100)/(nondeuterated species) ([2]; versus Eliglustat (D0)) [%]
"CCCCCCCC(=O)N[C@H](CN1CCCC1)[C@H](O)c1ccc2c(c1)OCCO2 [Eliglustat (D0), N-[2-(2,3-dihydro-1,4-benzodioxin-6-yl)-2(R)-hydroxy-1(R)-(pyrrolidin-1-ylmethyl)ethyl]octanamide, reference compound]",6.6,5.1,6.7 ± 1.5,9.7,6.3,8 ± 2.4,,,,
"N-((1R,2R)-1-(2,3-Dihydrobenzo[b][1,4]dioxin-6-yl-2,2,3,3-d4)-1-hydroxy-3-(pyrrolidin-1-yl-d8)propan-2-yl)octanamide hemi-L-tartaric acid salt [Compound 118]",,,,,,,5.9,5.6,5.8 ± 0.2,
"N-((1R,2R)-1-(2,3-dihydrobenzo[b][1,4]dioxin-6-yl)-1-hydroxy-3-(pyrrolidin-2-yl-3,3-d2)octan-d15-amide hemi-L-tartaric acid salt [Compound 171]",,,,,,,17.1,12.3,14.7 ± 3.4,119
